Series [1] can be described thus: Chemiluminescence on addition to cesium hydroxide in methanol or aqueous methanol, measured with a fluorescence analyzer. Format: physicochemical. The conditions noted are these: 25° C. Here is the method: 1 ml of a 3.12×10^-3 M methanol solution of 4-(4-acetyl-3-hydroxyphenyl)-3,3-(bicyclo[3.3.1]nonan-3,7-diyl)-4-methoxy- 1,2-dioxethane (Compound [10]) synthesized in Example 2 was added to 2 ml of a 1.5×10^-1 M methanol solution of cesium hydroxide at 25° C.
The luminescence at the moment of the addition of the compound [10] to the methanol solution of cesium hydroxide was measured with a fluorescence analyzer in the same manner as in Test Example 1.
The measurement of the luminescence of the compound [10] in Test Example 2 was repeated in the same manner as in Test Example 2 except that the methanol used as the solvent for cesium hydroxide employed in Test Example 2 was replaced by an aqueous solution of methanol (water: 50%) without changing the concentration of cesium in the diluted methanol solution.
Thus, the luminescence at the moment of the addition of the compound [10] to the diluted methanol solution of cesium hydroxide was measured with a fluorescence analyzer in the same manner as in Test Example 1.
The measurement of the luminescence of the compound [10] in Test Example 2 was repeated in the same manner as in Test Example 2 except that the methanol used as the solvent for cesium hydroxide employed in Test Example 2 was replaced by an aqueous solution of methanol (water: 97%) without changing the concentration of cesium in the diluted methanol solution.
1 ml of a 3.12×10^-3 M methanol solution of 3,3-(bicyclo[3.3.1]nonan-3,7-diyl)-4-(3-hydroxyphenyl)-4-methoxy-1,2-dioxetane (Comparative Compound) was added to 2 ml of a 1.5×10^-1 M methanol solution of cesium hydroxide at 25° C.
It was tried to measure the luminescence at the moment of the addition of the comparative compound to the methanol solution of cesium hydroxide with a fluorescence analyzer in the same manner as in Test Example 1.
The measurement of he luminescence of the comparative compound in Comparative Test Example 2 was repeated in the same manner as in Comparative Test Example 2 except that the methanol used as the solvent for cesium hydroxide employed in Comparative Test Example 2 was replaced by an aqueous solution of methanol (water: 50%) without changing the concentration of cesium in the diluted methanol solution.
Thus, the luminescence at the moment of the addition of the comparative compound to the diluted methanol solution of cesium hydroxide was measured with a fluorescence analyzer in the same manner as in Test Example 1.
The measurement of the luminescence of the comparative compound in Comparative Test Example 2 was repeated in the same manner as in Comparative Test Example 2 except that the methanol used as the solvent for cesium hydroxide employed in Comparative Test Example 2 was replaced by an aqueous solution of methanol (water: 97%) without changing the concentration of cesium in the diluted methanol solution.

Series [2] in a line: Chemiluminescence on addition to tetrabutylammonium fluoride in DMSO, measured with a fluorescence analyzer. Format: physicochemical. The conditions noted are these: tetrabutylammonium fluoride 1.5×10^-1 M, 25° C. The protocol:
1 ml of a […] dimethylsulfoxide(DMSO) solution of 4-(4-acetyl-3-hydroxyphenyl)-3,3-(bicyclo[3.3.1]nonan-3,7-diyl)-4-methoxy- 1,2-dioxethane (Compound [10]) synthesized in Example 2 was added to 2 ml of 1.5×10^-1 M DMSO solution of tetrabutylammonium fluoride at 25° C.
The luminescence at the moment of the addition of the compound [10] to the DMSO solution of tetrabutylammonium fluoride was measured with a fluorescence analyzer.
1 ml of a 2.94×10^-3 M dimethylsulfoxide (DMSO) solution of 3,3-(bicyclo[3.3.1]nonan-3,7-diyl)-4-(3-hydroxyphenyl)-4-methoxy-1,2-dioxetane (Comparative Compound) was added to 2 ml of 1.5×10^-1 M DMSO solution of tetrabutylammonium fluoride at 25° C.
The luminescence at the moment of the addition of the comparative compound to the DMSO solution of tetrabutylammonium fluoride was measured with a fluorescence analyzer in the same manner as in Example 1.

[3] abbreviates: Aqueous solution of methanol (water: 50%), cesium hydroxide.
[4] abbreviates: Aqueous solution of methanol (water: 97%), cesium hydroxide.
The mark [5] stands for this setting: methanol solution of cesium hydroxide, in words.
Where [6] appears, read: Methanol, cesium hydroxide 1.5×10^-1 M, compound 3.12×10^-3 M.

As to `COC1(c2cccc(O)c2)OOC12C1CC3CC(C1)CC2C3` (centres unmarked) [Comparative Compound, 3,3-(bicyclo[3.3.1]nonan-3,7-diyl)-4-(3-hydroxyphenyl)-4-methoxy-1,2-dioxetane, reference compound], in series [1] (setting [3]), the “Half-life (sec) of Luminescence” value worked out at 452 s, the “Luminescence Quantum Efficiency” value is reported as 3.9 × 10^-5 and the “λmax (nm)” value was 472 nm. Also, in series [1] (setting [4]), the “Half-life (sec) of Luminescence” value stood at 173 s, the “Luminescence Quantum Efficiency” value is on record as 6.7 × 10^-6 and the “λmax (nm)” value is 474 nm. For the same compound, in series [1] (setting [5]), the “half-life of the luminescence” value is given as “extremely long” and the “intensity of the luminescence” value is reported as “extremely small”. In series [2], the “Half-life (sec) of Luminescence” value is 5.1 s, the “Luminescence Quantum Efficiency” value came to 0.22 and the “λmax (nm)” value is given as 465 nm.
`COC1(c2ccc(C(C)=O)c(O)c2)OOC12C1CC3CC(C1)CC2C3` (centres unmarked) [Compound [10], 4-(4-acetyl-3-hydroxyphenyl)-3,3-(bicyclo[3.3.1]nonan-3,7-diyl)-4-methoxy-1,2-dioxethane]: the “Half-life (sec) of Luminescence” value is 29000 s in series [1] (setting [3]), 8200 s in series [1] (setting [4]), 120000 s in series [1] (setting [6]) and 23000 s in series [2]. For the same compound, the “Luminescence Quantum Efficiency” value in series [1] (setting [3]) stood at 0.023; in series [1] (setting [4]), 0.0064; in series [1] (setting [6]) it was 0.030; in series [2], 0.13. Further, the “λmax (nm)” value in series [1] (setting [3]) is 496 nm; in series [1] (setting [4]) it was 496 nm; in series [1] (setting [6]), 493 nm; in series [2], 486 nm.

The values are drawn from patent US5929254A, “1,2-dioxetane derivatives” (Fujirebio Inc., priority 1996, dated 1999).
